Results as given in article PMC12102759 (Protein Science : A Publication of the Protein Society, 2025).

system: PABPC1 PABC; assay type: binding, human; conditions: DMS-BM library, bait PABPC1 PABC, prey ATXN2, TLNPNAKEFNPRSF(averaged) over the two overlapping peptides; A = wild type, row aa = residue at this position

Going from TLNPNAKEFNPRSF to “TLNPNAKEFNPRSF(averaged) A6D (TLNPNDKEFNPRSF)”, the “DMS-derived PSSM value (averaged), position A6” value falls from 0.4881 to 0.

“TLNPNAKEFNPRSF(averaged) A6E (TLNPNEKEFNPRSF)” and “TLNPNAKEFNPRSF(averaged) A6F (TLNPNFKEFNPRSF)” are the same in “DMS-derived PSSM value (averaged), position A6” value: 0 for the first, 0 for the second.

“TLNPNAKEFNPRSF(averaged) A6G (TLNPNGKEFNPRSF)” and “TLNPNAKEFNPRSF(averaged) A6H (TLNPNHKEFNPRSF)” are the same in “DMS-derived PSSM value (averaged), position A6” value: 0 for the first, 0 for the second.

Going from “TLNPNAKEFNPRSF(averaged) A6I (TLNPNIKEFNPRSF)” to “TLNPNAKEFNPRSF(averaged) A6K (TLNPNKKEFNPRSF)”, the “DMS-derived PSSM value (averaged), position A6” value falls from 0.01774 to 0.

“TLNPNAKEFNPRSF(averaged) A6L (TLNPNLKEFNPRSF)” and “TLNPNAKEFNPRSF(averaged) A6M (TLNPNMKEFNPRSF)” are the same in “DMS-derived PSSM value (averaged), position A6” value: 0 for the first, 0 for the second.

“TLNPNAKEFNPRSF(averaged) A6N (TLNPNNKEFNPRSF)” and “TLNPNAKEFNPRSF(averaged) A6P (TLNPNPKEFNPRSF)” are the same in “DMS-derived PSSM value (averaged), position A6” value: 0 for the first, 0 for the second.

“TLNPNAKEFNPRSF(averaged) A6Q (TLNPNQKEFNPRSF)” and “TLNPNAKEFNPRSF(averaged) A6R (TLNPNRKEFNPRSF)” are the same in “DMS-derived PSSM value (averaged), position A6” value: 0 for the first, 0 for the second.

Compared with “TLNPNAKEFNPRSF(averaged) A6S (TLNPNSKEFNPRSF)”, “TLNPNAKEFNPRSF(averaged) A6T (TLNPNTKEFNPRSF)” is higher in “DMS-derived PSSM value (averaged), position A6” value: 0.04153 for the first, 0.133 for the second.

Compared with “TLNPNAKEFNPRSF(averaged) A6V (TLNPNVKEFNPRSF)”, “TLNPNAKEFNPRSF(averaged) A6W (TLNPNWKEFNPRSF)” is lower in “DMS-derived PSSM value (averaged), position A6” value: 0.3197 for the first, 0 for the second.

With “TLNPNAKEFNPRSF(averaged) A6Y (TLNPNYKEFNPRSF)” the “DMS-derived PSSM value (averaged), position A6” value was 0.

same assay, conditions: DMS-BM library, bait PABPC1 PABC, prey ATXN2, TLNPNAKEFNPRSF(averaged) over the two overlapping peptides; E = wild type, row aa = residue at this position

Compared with TLNPNAKEFNPRSF, “TLNPNAKEFNPRSF(averaged) E8A (TLNPNAKAFNPRSF)” is lower in “DMS-derived PSSM value (averaged), position E8” value: 0.1343 for the first, 0.01267 for the second.

“TLNPNAKEFNPRSF(averaged) E8D (TLNPNAKDFNPRSF)” and “TLNPNAKEFNPRSF(averaged) E8F (TLNPNAKFFNPRSF)” are the same in “DMS-derived PSSM value (averaged), position E8” value: 0 for the first, 0 for the second.

First: TLNPNAKEFNPRSF(averaged) E8G (TLNPNAKGFNPRSF)
Second: TLNPNAKEFNPRSF(averaged) E8H (TLNPNAKHFNPRSF)
The “DMS-derived PSSM value (averaged), position E8” value of the first is lower: 0 for the first, 0.2075 for the second.

Compared with “TLNPNAKEFNPRSF(averaged) E8I (TLNPNAKIFNPRSF)”, “TLNPNAKEFNPRSF(averaged) E8K (TLNPNAKKFNPRSF)” is higher in “DMS-derived PSSM value (averaged), position E8” value: 0.006482 for the first, 0.03159 for the second.

First: TLNPNAKEFNPRSF(averaged) E8L (TLNPNAKLFNPRSF)
Second: TLNPNAKEFNPRSF(averaged) E8M (TLNPNAKMFNPRSF)
The “DMS-derived PSSM value (averaged), position E8” value of the first is lower: 0 for the first, 0.02105 for the second.

Going from “TLNPNAKEFNPRSF(averaged) E8N (TLNPNAKNFNPRSF)” to “TLNPNAKEFNPRSF(averaged) E8P (TLNPNAKPFNPRSF)”, the “DMS-derived PSSM value (averaged), position E8” value rises from 0.07264 to 0.1423.

Going from “TLNPNAKEFNPRSF(averaged) E8Q (TLNPNAKQFNPRSF)” to “TLNPNAKEFNPRSF(averaged) E8R (TLNPNAKRFNPRSF)”, the “DMS-derived PSSM value (averaged), position E8” value falls from 0.02477 to 0.

Compared with “TLNPNAKEFNPRSF(averaged) E8S (TLNPNAKSFNPRSF)”, “TLNPNAKEFNPRSF(averaged) E8T (TLNPNAKTFNPRSF)” is higher in “DMS-derived PSSM value (averaged), position E8” value: 0.04903 for the first, 0.1317 for the second.

First: TLNPNAKEFNPRSF(averaged) E8V (TLNPNAKVFNPRSF)
Second: TLNPNAKEFNPRSF(averaged) E8W (TLNPNAKWFNPRSF)
The “DMS-derived PSSM value (averaged), position E8” value of the first is higher: 0.141 for the first, 0 for the second.

In the case of “TLNPNAKEFNPRSF(averaged) E8Y (TLNPNAKYFNPRSF)”, the “DMS-derived PSSM value (averaged), position E8” value is reported as 0.02496.

same assay, conditions: DMS-BM library, bait PABPC1 PABC, prey ATXN2, TLNPNAKEFNPRSF(averaged) over the two overlapping peptides; F = wild type, row aa = residue at this position

First: TLNPNAKEFNPRSF
Second: TLNPNAKEFNPRSF(averaged) F9A (TLNPNAKEANPRSF)
The “DMS-derived PSSM value (averaged), position F9” value of the first is higher: 0.3018 for the first, 0 for the second.

Going from “TLNPNAKEFNPRSF(averaged) F9D (TLNPNAKEDNPRSF)” to “TLNPNAKEFNPRSF(averaged) F9E (TLNPNAKEENPRSF)”, the “DMS-derived PSSM value (averaged), position F9” value rises from 0.001318 to 0.02703.

“TLNPNAKEFNPRSF(averaged) F9G (TLNPNAKEGNPRSF)” and “TLNPNAKEFNPRSF(averaged) F9H (TLNPNAKEHNPRSF)” are the same in “DMS-derived PSSM value (averaged), position F9” value: 0 for the first, 0 for the second.

Going from “TLNPNAKEFNPRSF(averaged) F9I (TLNPNAKEINPRSF)” to “TLNPNAKEFNPRSF(averaged) F9K (TLNPNAKEKNPRSF)”, the “DMS-derived PSSM value (averaged), position F9” value rises from 0 to 0.003046.

“TLNPNAKEFNPRSF(averaged) F9L (TLNPNAKELNPRSF)” and “TLNPNAKEFNPRSF(averaged) F9M (TLNPNAKEMNPRSF)” are the same in “DMS-derived PSSM value (averaged), position F9” value: 0 for the first, 0 for the second.

Going from “TLNPNAKEFNPRSF(averaged) F9N (TLNPNAKENNPRSF)” to “TLNPNAKEFNPRSF(averaged) F9P (TLNPNAKEPNPRSF)”, the “DMS-derived PSSM value (averaged), position F9” value falls from 0.04813 to 0.

“TLNPNAKEFNPRSF(averaged) F9Q (TLNPNAKEQNPRSF)” and “TLNPNAKEFNPRSF(averaged) F9R (TLNPNAKERNPRSF)” are the same in “DMS-derived PSSM value (averaged), position F9” value: 0 for the first, 0 for the second.

First: TLNPNAKEFNPRSF(averaged) F9S (TLNPNAKESNPRSF)
Second: TLNPNAKEFNPRSF(averaged) F9T (TLNPNAKETNPRSF)
The “DMS-derived PSSM value (averaged), position F9” value of the first is lower: 0 for the first, 0.02947 for the second.

First: TLNPNAKEFNPRSF(averaged) F9V (TLNPNAKEVNPRSF)
Second: TLNPNAKEFNPRSF(averaged) F9W (TLNPNAKEWNPRSF)
The “DMS-derived PSSM value (averaged), position F9” value of the first is lower: 0.0004395 for the first, 0.4279 for the second.

In the case of “TLNPNAKEFNPRSF(averaged) F9Y (TLNPNAKEYNPRSF)”, the “DMS-derived PSSM value (averaged), position F9” value is reported as 0.1609.

Compared with TLNPNAKEFNPRSF, “TLNPNAKEFNPRSF(averaged) F14A (TLNPNAKEFNPRSA)” is lower in “DMS-derived PSSM value (averaged), position F14” value: 0.06062 for the first, 0.04899 for the second.

Going from “TLNPNAKEFNPRSF(averaged) F14D (TLNPNAKEFNPRSD)” to “TLNPNAKEFNPRSF(averaged) F14E (TLNPNAKEFNPRSE)”, the “DMS-derived PSSM value (averaged), position F14” value falls from 0.01885 to 0.01777.

For “TLNPNAKEFNPRSF(averaged) F14G (TLNPNAKEFNPRSG)”, the “DMS-derived PSSM value (averaged), position F14” value was 0.002756.

same assay, conditions: DMS-BM library, bait PABPC1 PABC, prey ATXN2, TLNPNAKEFNPRSF(averaged) over the two overlapping peptides; K = wild type, row aa = residue at this position

For TLNPNAKEFNPRSF, the “DMS-derived PSSM value (averaged), position K7” value was 0.01034.

same assay, conditions: DMS-BM library, bait PABPC1 PABC, prey ATXN2, TLNPNAKEFNPRSF(averaged) over the two overlapping peptides; L = wild type, row aa = residue at this position

In the case of TLNPNAKEFNPRSF, the “DMS-derived PSSM value (averaged), position L2” value is reported as 0.5343.

same assay, conditions: DMS-BM library, bait PABPC1 PABC, prey ATXN2, TLNPNAKEFNPRSF(averaged) over the two overlapping peptides; N = wild type, row aa = residue at this position

For TLNPNAKEFNPRSF, the “DMS-derived PSSM value (averaged), position N3” value was 0.5964.

With TLNPNAKEFNPRSF the “DMS-derived PSSM value (averaged), position N5” value was 0.0195.

TLNPNAKEFNPRSF was tested, and the “DMS-derived PSSM value (averaged), position N10” value was 0.05544.

same assay, conditions: DMS-BM library, bait PABPC1 PABC, prey ATXN2, TLNPNAKEFNPRSF(averaged) over the two overlapping peptides; P = wild type, row aa = residue at this position

With TLNPNAKEFNPRSF the “DMS-derived PSSM value (averaged), position P4” value was 0.1195.

In the case of TLNPNAKEFNPRSF, the “DMS-derived PSSM value (averaged), position P11” value is reported as 0.04091.

same assay, conditions: DMS-BM library, bait PABPC1 PABC, prey ATXN2, TLNPNAKEFNPRSF(averaged) over the two overlapping peptides; R = wild type, row aa = residue at this position

In the case of TLNPNAKEFNPRSF, the “DMS-derived PSSM value (averaged), position R12” value is reported as 0.02883.

same assay, conditions: DMS-BM library, bait PABPC1 PABC, prey ATXN2, TLNPNAKEFNPRSF(averaged) over the two overlapping peptides; S = wild type, row aa = residue at this position

With TLNPNAKEFNPRSF the “DMS-derived PSSM value (averaged), position S13” value was 0.05759.

same assay, conditions: DMS-BM library, bait PABPC1 PABC, prey ATXN2, TLNPNAKEFNPRSF(averaged) over the two overlapping peptides; T = wild type, row aa = residue at this position

TLNPNAKEFNPRSF was tested, and the “DMS-derived PSSM value (averaged), position T1” value was 0.0418.

same assay, conditions: DMS-BM library, bait PABPC1 PABC, prey ATXN2, peptide KSTLNPNAKEFNPRSF; T = wild type, row aa = residue at this position

Compared with KSTLNPNAKEFNPRSF T3E (KSELNPNAKEFNPRSF), KSTLNPNAKEFNPRSF T3F (KSFLNPNAKEFNPRSF) is lower in “DMS-derived PSSM value, position T3” value: 0.2365 for the first, 0.07157 for the second.

First: KSTLNPNAKEFNPRSF T3G (KSGLNPNAKEFNPRSF)
Second: KSTLNPNAKEFNPRSF T3H (KSHLNPNAKEFNPRSF)
The “DMS-derived PSSM value, position T3” value of the first is higher: 0.0785 for the first, 0.01262 for the second.

Going from KSTLNPNAKEFNPRSF T3I (KSILNPNAKEFNPRSF) to KSTLNPNAKEFNPRSF T3K (KSKLNPNAKEFNPRSF), the “DMS-derived PSSM value, position T3” value falls from 0.1667 to 0.

First: KSTLNPNAKEFNPRSF T3L (KSLLNPNAKEFNPRSF)
Second: KSTLNPNAKEFNPRSF T3M (KSMLNPNAKEFNPRSF)
The “DMS-derived PSSM value, position T3” value of the first is lower: 0.01491 for the first, 0.08084 for the second.

First: KSTLNPNAKEFNPRSF T3N (KSNLNPNAKEFNPRSF)
Second: KSTLNPNAKEFNPRSF T3P (KSPLNPNAKEFNPRSF)
The “DMS-derived PSSM value, position T3” value of the first is higher: 0.01165 for the first, 0.005473 for the second.

KSTLNPNAKEFNPRSF T3Q (KSQLNPNAKEFNPRSF) and KSTLNPNAKEFNPRSF T3R (KSRLNPNAKEFNPRSF) are the same in “DMS-derived PSSM value, position T3” value: 0 for the first, 0 for the second.

Compared with KSTLNPNAKEFNPRSF T3S (KSSLNPNAKEFNPRSF), KSTLNPNAKEFNPRSF T3V (KSVLNPNAKEFNPRSF) is higher in “DMS-derived PSSM value, position T3” value: 0 for the first, 0.2131 for the second.

Going from KSTLNPNAKEFNPRSF T3W (KSWLNPNAKEFNPRSF) to KSTLNPNAKEFNPRSF T3Y (KSYLNPNAKEFNPRSF), the “DMS-derived PSSM value, position T3” value falls from 0.01564 to 0.005309.
